Results from patent US10301305B2 (priority 2014, dated 2019).

Assays:
Format in all cases: biochemical
S. aureus DltA = S. aureus DltA (Staphylococcus aureus (strain NCTC 8325 / PS 47), UniProt Q2FZW6); test: in vitro DltA activity assay (luminescence), S. aureus DltA; settings: recombinant DltA, 30 min pre-incubation, 0.5 mM D-Alanine, 0.5-5 μM ATP; read-out: S. aureus DltA IC50
Protocol: (§1) The effect of the compounds of the invention on DltA enzymes has been based on the measure of their inhibition of DltA activity in vitro. To this end, recombinant proteins DltA were expressed and purified after cloning of the genes of S. aureus, E. faecalis, E. faecium and S. agalactiae as described thereafter. The capacity of the compounds of the invention to inhibit DltA enzymatic activity was assessed using the DltA assays as described below:
(§2) The dltA gene was amplified from chromosomal DNA of S. aureus, E. faecalis, E. faecium and S. agalactiae and introduced into E. coli BL21 (Invitrogen, Carlsbad, Calif.) following manufacturer's instruction. Bacteria were grown at 37° C. under aerobic conditions and isopropyl-beta-D-thiogalactopyranoside (IPTG) was added to 0.5-1 mM when OD600 of the bacterial culture had reached 0.5. After a further incubation for 3 hours, cells were harvested by centrifugation. Purification of the recombinant DltA protein was performed by affinity chromatography on nickel-nitrilotriacetic acid (Ni-NTA) column following manufacturer's instructions (Qiagen). Fractions containing recombinant DltA protein were adjusted to 50% glycerol and stored at −20° C. until use.
(§3) The binding potency of the inhibitors against DltA enzyme was assessed by IC50 determination in an in vitro DltA activity assay. The assay buffer “AB” contained 50 mM Hepes pH8.0, 10 mM MgCl2, 50 mM KCl, 0.012% Triton-X100, 10 mM DTT and 100 nM Myelin-basic protein. The following components were added in a white polystyrene Costar plate up to a final volume of 30 μL: 3 μL DMSO, or inhibitor dissolved in DMSO and 27 μL DltA enzyme in AB. After 30 min of pre-incubation at room temperature, 30 μL of Substrates mix in AB were added in each well to a final volume of 60 μL. This reaction mixture was then composed of DltA (produced in house from S. aureus, E. faecalis, E. faecium and S. agalactiae), 0.5 mM D-Alanine (Sigma), 0.5-5 μM ATP (Sigma) and 0.05 u/ml inorganic pyrophosphatase (Sigma) in assay buffer. After typically 1-2 hours of incubation at room temperature (conversion rate around 30%), 30 μL of the revelation mix were added to a final volume of 90 μL, including the following constituents at the respective final concentrations: 10000 u/ml luciferase (Sigma), 30 μM D-luciferin (Sigma), 100 μM N-acetylcysteamine (Aldrich). Luminescence intensity was immediately measured on a Fluostar Optima (BMG) (excitation 360 nm, emission 520 nm) and converted into inhibition percentages. For IC50 determinations (Inhibitory Concentration 50%) the inhibitor was added at 6 to 10 different concentrations and the related inhibitions were fitted to a classical Langmuir equilibrium model using XLFIT (IDBS).
(§4) For compounds interfering with the luminescent signal (quenching), the same experiment without DltA enzyme was performed to allow quenching determination and correction.

S. Agalactiae DltA = S. Agalactiae DltA (Streptococcus agalactiae serotype III (strain NEM316), UniProt Q8VM67); test: in vitro DltA activity assay (luminescence), S. agalactiae DltA; settings: recombinant DltA, 30 min pre-incubation, 0.5 mM D-Alanine, 0.5-5 μM ATP; read-out: S. Agalactiae DltA IC50
Protocol: as §1, §2, §3, §4

E. feacalis DltA = E. feacalis DltA (Enterococcus faecalis, UniProt Q830N0); test: in vitro DltA activity assay (luminescence), E. faecalis DltA; settings: recombinant DltA, 30 min pre-incubation, 0.5 mM D-Alanine, 0.5-5 μM ATP; read-out: E. feacalis DltA IC50
Sequence of E. feacalis DltA (Q830N0 1-506): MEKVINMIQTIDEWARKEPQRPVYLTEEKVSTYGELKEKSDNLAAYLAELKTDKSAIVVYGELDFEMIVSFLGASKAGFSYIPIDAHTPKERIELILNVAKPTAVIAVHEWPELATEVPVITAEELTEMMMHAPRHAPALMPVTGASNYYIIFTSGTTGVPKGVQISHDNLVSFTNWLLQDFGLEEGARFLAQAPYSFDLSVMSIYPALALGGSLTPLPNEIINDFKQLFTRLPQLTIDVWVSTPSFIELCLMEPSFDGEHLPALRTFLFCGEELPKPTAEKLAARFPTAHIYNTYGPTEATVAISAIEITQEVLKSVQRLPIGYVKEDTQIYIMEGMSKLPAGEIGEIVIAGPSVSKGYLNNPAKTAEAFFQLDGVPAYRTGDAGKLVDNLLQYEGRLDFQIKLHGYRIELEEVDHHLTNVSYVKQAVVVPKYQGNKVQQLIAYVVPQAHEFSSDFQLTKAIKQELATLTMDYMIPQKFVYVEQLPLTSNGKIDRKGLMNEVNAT
Protocol: as §1, §2, §3, §4

E. feacium DltA = E. feacium DltA (Enterococcus faecium, UniProt Q3XZT7); test: in vitro DltA activity assay (luminescence), E. faecium DltA; settings: recombinant DltA, 30 min pre-incubation, 0.5 mM D-Alanine, 0.5-5 μM ATP; read-out: E. feacium DltA IC50
Sequence of E. feacium DltA (Q3XZT7 1-504): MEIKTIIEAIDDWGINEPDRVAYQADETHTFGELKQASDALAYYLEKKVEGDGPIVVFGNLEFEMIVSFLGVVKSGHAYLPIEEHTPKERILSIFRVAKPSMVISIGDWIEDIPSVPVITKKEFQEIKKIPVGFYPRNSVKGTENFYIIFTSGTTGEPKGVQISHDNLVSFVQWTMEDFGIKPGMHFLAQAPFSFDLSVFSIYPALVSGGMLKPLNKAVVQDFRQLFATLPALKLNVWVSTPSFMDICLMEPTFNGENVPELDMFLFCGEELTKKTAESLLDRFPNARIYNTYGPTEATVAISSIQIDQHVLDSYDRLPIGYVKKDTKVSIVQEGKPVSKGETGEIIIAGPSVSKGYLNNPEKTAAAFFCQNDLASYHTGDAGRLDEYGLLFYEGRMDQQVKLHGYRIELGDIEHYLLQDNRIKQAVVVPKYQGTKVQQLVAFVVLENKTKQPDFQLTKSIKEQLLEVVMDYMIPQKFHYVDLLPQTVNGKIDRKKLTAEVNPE
Protocol: as §1, §2, §3, §4

Compound | IC50 (S. aureus DltA) | IC50 (S. Agalactiae DltA) | IC50 (E. feacalis DltA) | IC50 (E. feacium DltA)
NC(=O)c1c(N2CCC(CCO)C2)cc(-c2ccc3c(c2)ncn3C2CCCCC2)c2nc[nH]c12 (centres unmarked) [Example 77, 1′-Cyclohexyl-6-[3-(2-hydroxy-ethyl)-pyrrolidin-1-yl]-1H,1′H-[4,5′]bibenzimidazolyl-7-carboxamide] | 77 nM | 1300 nM | 41 nM | 110 nM
N#Cc1c(NCCO)cc(-c2ccc3c(c2)ncn3C2CCCCC2)c2nc[nH]c12 [Example 78] | 210 nM | 5400 nM | 170 nM | 590 nM
CN(CCO)c1cc(-c2ccc3c(c2)ncn3C2CCCCC2)c2nc[nH]c2c1C#N [Example 92] | 190 nM | 8200 nM | 240 nM | 600 nM
CN(C)CCOc1cc(-c2ccc3c(c2)ncn3C2CCCCC2)c2nc[nH]c2c1C#N [Example 104] | 53 nM | 2400 nM | 84 nM | 390 nM
CN1CCN(c2cc(-c3ccc4c(c3)ncn4C3CCCCC3)c3nc[nH]c3c2C(N)=O)CC1 [Example 106, 1′-Cyclohexyl-6-(4-methyl-piperazin-1-yl)-1H,1′H-[4,5′]bibenzimidazolyl-7-carboxamide] | 34 nM | 500 nM | 18 nM | 76 nM
O=C(NO)c1c(F)cc(-c2ccc3c(c2)ncn3C2CCCCC2)c2nc[nH]c12 [Example 111, 1′-Cyclohexyl-6-fluoro-1H,1′H-[4,5′]bibenzimidazolyl-N-hydroxy-7-carboxamide] | 280 nM | 11000 nM | 610 nM | 1100 nM
CN(CCO)c1cc(-c2ccc3c(c2)ncn3C2CCCCC2)c2nc[nH]c2c1C(N)=O [Example 117, 1′-Cyclohexyl-6-[(2-hydroxy-ethyl)-methyl-amino]-1H,1′H-[4,5′]bibenzimidazolyl-7-carboxamide] | 23 nM | 560 nM | 16 nM | 27 nM
CN(C)CCCN(C)c1cc(-c2ccc3c(c2)ncn3C2CCCCC2)c2nc[nH]c2c1C(N)=O [Example 122, 1′-Cyclohexyl-6-[(3-dimethylamino-propyl)-methyl-amino]-1H,1′H-[4,5′]bibenzimidazolyl-7-carboxamide] | 59 nM | 1800 nM | 31 nM | 82 nM
CN(C)CCN(C)c1cc(-c2ccc3c(c2)ncn3C2CCCOC2)c2nc[nH]c2c1C(N)=O (centres unmarked) [Example 123, 6-[(2-dimethylamino-ethyl)-methyl-amino]-1′-(tetrahydro-pyran-3-yl)-1H,1′H-[4,5′]bibenzimidazolyl-7-carboxamide] | 6.9 nM | 970 nM | 8.2 nM | 41 nM
CN(C)CC1CCCN1c1cc(-c2ccc3c(c2)ncn3C2CCCCC2)c2nc[nH]c2c1C(N)=O (centres unmarked) [Example 126, 1′-Cyclohexyl-6-(2-dimethylaminomethyl-pyrrolidin-1-yl)-1H,1′H-[4,5′]bibenzimidazolyl-7-carboxamide] | 57 nM | 1800 nM | 56 nM | 240 nM
CN(CCN1CCCC1)c1cc(-c2ccc3c(c2)ncn3C2CCCCC2)c2nc[nH]c2c1C(N)=O [Example 127, 1′-Cyclohexyl-6-[methyl-(2-pyrrolidin-1-yl-ethyl)-amino]-1H,1′H-[4,5′]bibenzimidazolyl-7-carboxamide] | 25 nM | 140 nM | 2.9 nM | 18 nM
CCN(CC)CCN(C)c1cc(-c2ccc3c(c2)ncn3C2CCCCC2)c2nc[nH]c2c1C(N)=O [Example 130, 1′-Cyclohexyl-6-[(2-diethylamino-ethyl)-methyl-amino]-1H,1′H-[4,5′]bibenzimidazolyl-7-carboxamide] | 73 nM | 790 nM | 36 nM | 170 nM
CN(C)CCN(CCO)c1cc(-c2ccc3c(c2)ncn3C2CCCCC2)c2nc[nH]c2c1C(N)=O [Example 131, 1′-Cyclohexyl-6-[(2-dimethylamino-ethyl)-(2-hydroxy-ethyl)-amino]-1H,1′H-[4,5′]bibenzimidazolyl-7-carboxamide] | 75 nM | 1900 nM | 40 nM | 230 nM
CN(C)CCN(C)c1cc(-c2ccc3scnc3c2)c2nc[nH]c2c1C(N)=O [Example 134, 7-Benzothiazol-5-yl-5-[(2-dimethylamino-ethyl)-methyl-amino]-3H-benzimidazole-4-carboxamide] | 250 nM | 1100 nM | 24 nM | 120 nM
COCCn1cnc2cc(-c3cc(N(C)CCN(C)C)c(C(N)=O)c4[nH]cnc34)ccc21 [Example 135] | 17 nM | 840 nM | 69 nM | 45 nM
CN(C)CCN(C)c1cc(-c2cnc3c(c2)CCCO3)c2nc[nH]c2c1C(N)=O [Example 144, 7-(3,4-Dihydro-2H-pyrano[2,3-b]pyridin-6-yl)-5-[(2-dimethylamino-ethyl)-methyl-amino]-3H-benzimidazole-4-carboxamide] | 39 nM | 630 nM | 17 nM | 120 nM
CCn1cnc2cc(-c3cc(N(C)CCN(C)C)c(C(N)=O)c4[nH]cnc34)cc(OC)c21 [Example 152] | 13 nM | 2200 nM | 16 nM | 58 nM
CN(C)CCN(C)c1cc(-c2ccc3c(c2)ncn3C2CCC(F)(F)CC2)c2nc[nH]c2c1C(N)=O [Example 161, 1′-(4,4-Difluoro-cyclohexyl)-6-[(2-dimethylamino-ethyl)-methyl-amino]-1H,1′H-[4,5′]bibenzimidazolyl-7-carboxamide] | 13 nM | 1200 nM | 8.1 nM | 69 nM
CN(C)CCN(C)c1cc(-c2ccc3c(c2)ncn3CC(F)F)c2nc[nH]c2c1C(N)=O [Example 163, 1′-(2,2-Difluoro-ethyl)-6-[(2-dimethylamino-ethyl)-methyl-amino]-1H,1′H-[4,5′]bibenzimidazolyl-7-carboxamide] | 14 nM | 780 nM | 5.4 nM | 34 nM
CN(C)CCN(C)c1cc(-c2cc3c4c(c2)ncn4CCO3)c2nc[nH]c2c1C(N)=O [Example 165, 7-(3,4-Dihydro-5-oxa-1.2a-diaza-acenaphthylen-7-yl)-5-[(2-dimethylamino-ethyl)-methyl-amino]-3H-benzimidazole-4-carboxamide] | 29 nM | 2200 nM | 26 nM | 90 nM
CN(CCO)c1cc(-c2ccc3c(c2)ncn3[C@@H]2CCCC[C@H]2F)c2nc[nH]c2c1C(N)=O [Example 171] | 15 nM | 350 nM | 6.7 nM | 40 nM
COCCN(C)c1cc(-c2ccc3c(c2)ncn3C2CCCCC2)c2nc[nH]c2c1C(N)=O [Example 176, 1′-Cyclohexyl-6-[(2-methoxy-ethyl)-methyl-amino]-1H,1′H-[4,5′]bibenzimidazolyl-7-carboxamide] | 940 nM | 2300 nM | 35 nM | 190 nM
CN(CCO)c1cc(-c2cnc3c(c2)CCCO3)c2nc[nH]c2c1C(N)=O [Example 177, 7-(3,4-Dihydro-2H-pyrano[2,3-b]pyridin-6-yl)-5-[(2-hydroxy-ethyl)-methyl-amino]-3H-benzimidazole-4-carboxamide] | 170 nM | 1100 nM | 45 nM | 320 nM
